Measurements from US20160047819A1, “METHOD FOR DIAGNOSING VAGINAL INFECTIONS” (priority 2013, published 2016).

Tested on: microbial proteins in vaginal fluid
Assay: MS/MS proteomic analysis of vaginal fluid pools before and after rifaximin/placebo treatment: microbial proteins
Type: in vivo
Method: Proteomic analysis was performed on 9 pools of vaginal isolates, grouped according to the status of the BV infection: • H pool (from 41 healthy women); BV pool (from 39 BV-affected women); • A-R pool (from 2 women who were in remission after rifaximin treatment-group A); • A-N pool (from 8 women who were not in remission after rifaximin treatment-group A); • B-R pool (from 5 women who were in remission after rifaximin treatment-group B); • B-N pool (from 5 women who were not in remission after rifaximin treatment-group B); • C-R pool (from 4 women who were in remission after rifaximin treatment-group C); • C-N (from 5 women who were not in remission after rifaximin treatment-group C); • D-N (from 10 women who were not in remission after placebo treatment-group D). Scheme of the vaginal fluids collected for testing the diagnostic method is represented in FIG. 1.
In these figures are reported the peptides in the fractionated pools of healthy women, women affected by BV and peptides of women treated with rifaximin. The treatment with rifaximin was at dosage of 100 mg/day for 5 days; (remission, A-R; no remission, A-N), 25 mg/5 days (remission, B-R; no remission, B-N), 100 mg/2 days (remission, C-R; no remission, C-N), and placebo for 5 days (D-N). Two types of comparisons were carried out: (i) between fractionated pools of proteins from vaginal fluid of healthy women (HF) versus fractionated pool of proteins from vaginal fluid of women affected by bacterial vaginosis (BVF); (ii) between whole pools of proteins from vaginal fluid of women affected by BV treated by administering different doses of rifaximin or placebo before (BV) and after (A-R, A-N, B-R, B-N, C-R, C-N, D-N) treatment. Fractioned pools of proteins are obtained, e.g., by separating the proteins by separation on membrane filtration with different membrane porosity, prior to MS/MS analysis.
Nine volumes of acetone: HCl (10:1) were added to the supernatant of the vaginal rinsing and proteins were precipitated by centrifuging at 12000 g for 10 min. The protein pellet was dissolved in 1 mL of 70% ethanol and the sample was spun at 12000 g for 10 min. One mL of acetone was added and the proteins were further precipitated by centrifugation at 12000 g for 5 min. After removing supernatant, pellet was dried by SpeedVac concentrator (Thermo Savant ISS110, Thermo Fisher Scientific, Waltham, Mass.) and then stored at −20° C.
Protein extract was quantified using the 2-D Quant Kit (GE Healthcare, Uppsala, Sweden) according to the manufacturer's instructions.
Patients who were diagnosed for BV at the study visit V1 were included in a multicentre, double-blind, randomised, placebo-controlled study (EudraCT: 2009-011826-32), that was performed to compare the efficacy of different doses of rifaximin vaginal tablets versus placebo for the treatment of BV. The patients underwent a randomisation visit and were distributed into 4 treatment groups: group A received 100 mg rifaximin vaginal tablet once daily for 5 days (n=10), group B received 25 mg rifaximin vaginal tablet once daily for 5 days (n=10), group C received 100 mg rifaximin vaginal tablet once daily for the first 2 days and placebo vaginal tablet for the remaining 3 days (n=9), group D received placebo vaginal tablet once daily for 5 days (n=10). Study medication was administered intra-vaginally at bedtime. After 7 to 10 days from the end of the therapy a follow-up visit (V3) was performed. Remission was evaluated at V3 according to Amsel's criteria (<3) and Gram stain Nugent score (≦3) (Table 1).
Standardized vaginal rinsings with 2 mL of saline were collected for analysis at V1 and V3 by flushing and re-aspirating the fluid through a 22 Gauge needle in the left, central and right upper vaginal vaults. The vaginal rinsings were subsequently stored at −80° C. until use.
MS/MS analysis was carried out for H and BV pools and for the whole BV, A-R, A-N, B-R, B-N, C-R, C-N and D-N pools containing 50 μg of protein each. […]

[1] = up-regulated in all pools (rifaximin and placebo) vs BV

Q: What does the source list for `CO[C@H]1/C=C/O[C@@]2(C)Oc3c(C)c(O)c4c(O)c(c5c(nc6cc(C)ccn65)c4c3C2=O)NC(=O)/C(C)=C\C=C\[C@H](C)[C@H](O)[C@@H](C)[C@@H](O)[C@@H](C)[C@H](OC(C)=O)[C@@H]1C` [rifaximin]?
A: fold change of Phosphoglycerate kinase from L. gasseri (A-R pool, over-expressed in A-N, B-R, C-R and D-N pools): −22.1 fold; expression change of Pyruvate kinase from L. delbrueckii subsp. bulgaricus (affected only in A-R pool): 1.5 ratio; expression change of Triosephosphate isomerase from L. delbrueckii subsp. bulgaricus (affected only in B-N pool): 2.4 ratio; median expression change of trigger factor from L. brevis (down-regulated in all pools after rifaximin treatment): −2.5 ratio; Ratio X/H Ribosome-recycling factor OS = Bifidobacterium longum subsp. infantis (B7GQS1) (pool A-N after treatment): −1.2; Ratio X/H Trigger factor OS = Lactobacillus brevis (Q03QN6) (pool A-N after treatment): −2.4; Ratio X/H Triosephosphate isomerase OS = Lactobacillus delbrueckii subsp. bulgaricus (Q1GB25) (pool A-N after treatment): −1.2; Ratio X/H UPF0082 protein SAB0618 OS = Staphylococcus aureus (Q2YSR2) (pool A-N after treatment): 5.6; Ratio X/H Uncharacterized membrane protein YAL018C OS = Saccharomyces cerevisiae (P31379) (pool A-N after treatment): 2.0; Ratio X/H Uncharacterized protein yphG OS = Escherichia coli (P76585) (pool A-N after treatment): −4.3; Ratio X/H Ribosome-recycling factor OS = Bifidobacterium longum subsp. infantis (B7GQS1) (pool A-R after treatment): −4.5; Ratio X/H Trigger factor OS = Lactobacillus brevis (Q03QN6) (pool A-R after treatment): −3.8; Ratio X/H Triosephosphate isomerase OS = Lactobacillus delbrueckii subsp. bulgaricus (Q1GB25) (pool A-R after treatment): −1.3; Ratio X/H UPF0082 protein SAB0618 OS = Staphylococcus aureus (Q2YSR2) (pool A-R after treatment): 9.3; Ratio X/H Uncharacterized membrane protein YAL018C OS = Saccharomyces cerevisiae (P31379) (pool A-R after treatment): 1.1; Ratio X/H Uncharacterized protein yphG OS = Escherichia coli (P76585) (pool A-R after treatment): 1.1; Ratio X/H Ribosome-recycling factor OS = Bifidobacterium longum subsp. infantis (B7GQS1) (pool B-N after treatment): −1.1; Ratio X/H Trigger factor OS = Lactobacillus brevis (Q03QN6) (pool B-N after treatment): −2.1; Ratio X/H Triosephosphate isomerase OS = Lactobacillus delbrueckii subsp. bulgaricus (Q1GB25) (pool B-N after treatment): 2.4; Ratio X/H UPF0082 protein SAB0618 OS = Staphylococcus aureus (Q2YSR2) (pool B-N after treatment): 9.2; Ratio X/H Uncharacterized membrane protein YAL018C OS = Saccharomyces cerevisiae (P31379) (pool B-N after treatment): 2.0; Ratio X/H Uncharacterized protein yphG OS = Escherichia coli (P76585) (pool B-N after treatment): −1.1; Ratio X/H Ribosome-recycling factor OS = Bifidobacterium longum subsp. infantis (B7GQS1) (pool B-R after treatment): −2.4; Ratio X/H Trigger factor OS = Lactobacillus brevis (Q03QN6) (pool B-R after treatment): −2.2; Ratio X/H Triosephosphate isomerase OS = Lactobacillus delbrueckii subsp. bulgaricus (Q1GB25) (pool B-R after treatment): −1.2; Ratio X/H UPF0082 protein SAB0618 OS = Staphylococcus aureus (Q2YSR2) (pool B-R after treatment): 10.5; Ratio X/H Uncharacterized membrane protein YAL018C OS = Saccharomyces cerevisiae (P31379) (pool B-R after treatment): 2.9; Ratio X/H Uncharacterized protein yphG OS = Escherichia coli (P76585) (pool B-R after treatment): 1.1; Ratio X/H Ribosome-recycling factor OS = Bifidobacterium longum subsp. infantis (B7GQS1) (pool C-N after treatment): 1.0; Ratio X/H Trigger factor OS = Lactobacillus brevis (Q03QN6) (pool C-N after treatment): −3.2; Ratio X/H Triosephosphate isomerase OS = Lactobacillus delbrueckii subsp. bulgaricus (Q1GB25) (pool C-N after treatment): −1.3; Ratio X/H UPF0082 protein SAB0618 OS = Staphylococcus aureus (Q2YSR2) (pool C-N after treatment): 5.9; Ratio X/H Uncharacterized membrane protein YAL018C OS = Saccharomyces cerevisiae (P31379) (pool C-N after treatment): 4.2; Ratio X/H Uncharacterized protein yphG OS = Escherichia coli (P76585) (pool C-N after treatment): −1.1; Ratio X/H Ribosome-recycling factor OS = Bifidobacterium longum subsp. infantis (B7GQS1) (pool C-R after treatment): −2.8; Ratio X/H Trigger factor OS = Lactobacillus brevis (Q03QN6) (pool C-R after treatment): −2.7; Ratio X/H Triosephosphate isomerase OS = Lactobacillus delbrueckii subsp. bulgaricus (Q1GB25) (pool C-R after treatment): −1.4; Ratio X/H UPF0082 protein SAB0618 OS = Staphylococcus aureus (Q2YSR2) (pool C-R after treatment): 8.9; Ratio X/H Uncharacterized membrane protein YAL018C OS = Saccharomyces cerevisiae (P31379) (pool C-R after treatment): −1.6; Ratio X/H Uncharacterized protein yphG OS = Escherichia coli (P76585) (pool C-R after treatment): 1.0; median down-regulation of Malate dehydrogenase from S. cerevisiae (pools after treatment vs BV): −2.3 fold; median expression change of enolases from L. acidophilus, L. delbrueckii subsp. bulgaricus, L. gasseri (trend of down-regulation in response to antibiotic administration): −2.7 ratio; median expression change of Phosphoglycerate kinase from U. parvum [1]: 5.1 ratio; median expression change of UPF0082 protein SAB0618 from S. aureus [1]: 8.9 ratio
